We go through 1 compound from publication PMC3140512, “Identification of Toxoplasma gondii cAMP Dependent Protein Kinase and Its Role in the Tachyzoite Growth” (PLoS ONE, 2011).

The target of the assay is T1, TgPKA-C (T. gondii PKA catalytic subunit; ToxoDB TGGT1_081170) (Toxoplasma gondii, UniProt Q58G65).
T1 construct: gene PKA2; entire ORF (343 amino acid residues), GST fusion, wheat germ cell-free expression
In words: in vitro radiometric kinase assay ([γ-32P]ATP, Histone IIAS substrate) with purified GST-TgPKA-C. The assay is classed as biochemical.

Molecules are shown by their SMILES.

T1 sequence (Q58G65 entry or part of it): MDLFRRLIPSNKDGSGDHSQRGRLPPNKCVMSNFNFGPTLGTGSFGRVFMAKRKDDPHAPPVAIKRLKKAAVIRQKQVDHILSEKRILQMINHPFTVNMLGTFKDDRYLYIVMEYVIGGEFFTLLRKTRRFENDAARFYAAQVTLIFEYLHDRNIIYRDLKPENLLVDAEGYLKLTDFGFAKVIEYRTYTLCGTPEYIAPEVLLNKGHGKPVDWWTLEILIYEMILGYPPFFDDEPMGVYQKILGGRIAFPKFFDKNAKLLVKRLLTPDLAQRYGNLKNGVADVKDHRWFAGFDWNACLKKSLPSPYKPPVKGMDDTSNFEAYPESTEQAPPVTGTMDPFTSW

In turn, `O=S(=O)(NCCNC/C=C/c1ccc(Br)cc1)c1cccc2cnccc12` [H89, N-[2-(p-bromocinnamylamino)ethyl]-5-isoquinolinesulfonamide] returned an IC50 of 175 µM.

The IC50 is the point on the concentration scale where inhibition reaches its midpoint. Read a low IC50 as higher potency.
